In ChEMBL document CHEMBL5661943, “ASAP - In vitro antiviral effect” (2024):
Several values for one entry are separate records, joined by “and”; a condition that tells them apart may be missing. Equal entries are not always repeated.

Key:
dengue virus type 2 [1] = test: Functional immunofluorescence assay to measure dose dependent changes in antiviral-drug inhibitory efficacy against Dengue virus type 2 Thailand/16681/84 in Vero E6/TMPRSS2 cells (cotreated with P-gp inhibitor, Elacridar). Cells are treated with antiviral candidates that are serially diluted, following infection, cells are fixed. EC50 is reported via analysis of immunofluorescence staining. The assay has been performed by Icahn School of Medicine at Mount Sinai.; format: organism-based, Chlorocebus sabaeus, VeroE6/TMPRSS2
Zika virus [2] = test: Functional CPE-based assay to measure dose dependent changes in antiviral-drug inhibitory efficacy against Zika virus MR766 in Vero E6 miRFP670 cells (cotreated with P-gp inhibitor, CP100356). Cells are treated with antiviral candidates that are serially diluted. EC50 is reported via analysis of MTS assay as a readout of CPE. The assay has been performed by KU Leuven.; format: organism-based, Chlorocebus sabaeus, Vero C1008; settings: Zika virus; for EC90: P-gp concentration 500 nM, P-gp inhibitor CP100356
Zika virus [3] = test: EC50 is reported via analysis of immunofluorescence staining. The assay has been performed by Icahn School of Medicine at Mount Sinai.; format: functional, organism-based, Chlorocebus sabaeus, VeroE6/TMPRSS2; settings: for EC90: P-gp concentration 2 uM, P-gp inhibitor Elacidar
dengue virus type 2 [4] = test: Functional assay to measure dose dependent changes in antiviral-drug inhibitory efficacy against Dengue virus type 2 New Guinea C in Vero E6 miRFP670 cells (cotreated with P-gp inhibitor, CP100356). Cells are treated with antiviral candidates that are serially diluted, following infection, cells are fixed. EC50 is reported via analysis of fluorescence intensity using high-content imager. The …; format: organism-based, Chlorocebus sabaeus, Vero C1008; settings: Dengue virus; for EC90: P-gp concentration 500 nM, P-gp inhibitor CP100356

CNC(=O)[C@H](Nc1ccc2c(c1)CNC2)c1cc(Cl)cc(C2CC2)c1
EC50 (dengue virus type 2 [1]; Dengue virus, VeroE6/TMPRSS2): > 50 µM | EC90 (dengue virus type 2 [1]; Dengue virus, VeroE6/TMPRSS2, Maximum measured 162.297 %, Minimum measured 85.868 %, P-gp concentration 2 uM, P-gp inhibitor Elacidar): > 50 µM | EC50 (Zika virus [2]; Vero C1008): 3.04 µM | EC90 (Zika virus [2]; Vero C1008, Baseline response 0 %, EC90 CI (lower) 0.152 uM, EC90 CI (upper) 118.856 uM, Hill slope 6.595, Maximum measured 181.208 %, Maximum response 100 %, Minimum measured 1.929 %, R squared 0.623): 4.25 µM | EC90 (Zika virus [3]; Zika virus, VeroE6/TMPRSS2, Maximum measured 135.998 %, Minimum measured 64.507 %): > 16.7 µM | EC90 (Zika virus [3]; Zika virus, VeroE6/TMPRSS2, Baseline response 0 %, Hill slope -0.359, Maximum measured 94.864 %, Maximum response 100 %, Minimum measured 60.283 %, R squared 0.436): > 5.56 µM | EC50 (Zika virus [3]; veroe6/tmprss2): > 16.7 µM

O=C(Nc1cc(Cl)cc([C@H]2CN(Cc3ccccc3)C[C@@H]2c2cccc(-c3nn[nH]n3)c2)c1)OCc1ccccc1
EC50 (dengue virus type 2 [4]; Vero C1008): 7.89 µM | EC90 (dengue virus type 2 [4]; Vero C1008, Baseline response 0 %, EC90 CI (lower) 5.235 uM, EC90 CI (upper) 7.261 uM, Hill slope -8.911, Maximum measured 94.205 %, Maximum response 100 %, Minimum measured 1.534 %, R squared 0.94): 10.1 µM | EC50 (dengue virus type 2 [1]; Dengue virus, VeroE6/TMPRSS2): 3.42 µM | EC90 (dengue virus type 2 [1]; Dengue virus, VeroE6/TMPRSS2): 5.71 µM | EC50 (Zika virus [3]; Zika virus, VeroE6/TMPRSS2): 7.98 µM | EC90 (Zika virus [3]; Zika virus, VeroE6/TMPRSS2, Baseline response 15.017 %, Hill slope -78.318, Maximum measured 79.355 %, Maximum response 65.758 %, Minimum measured 8.182 %, R squared 0.629): 8.21 µM

O=C(NC1CCOCC1)[C@H](Nc1ccc2c(c1)CNC2)c1cc(Cl)cc(C2CC2)c1
EC50 (dengue virus type 2 [4]; Vero C1008): 36 µM | EC90 (dengue virus type 2 [4]; Vero C1008, Baseline response 0 %, Hill slope -0.982, Maximum measured 114.445 %, Maximum response 100 %, Minimum measured 34.266 %, R squared 0.594): > 50 µM | EC50 (dengue virus type 2 [1]; Dengue virus, VeroE6/TMPRSS2): > 5.56 µM | EC90 (dengue virus type 2 [1]; Dengue virus, VeroE6/TMPRSS2, Maximum measured 137.73 %, Minimum measured 84.756 %, P-gp concentration 2 uM, P-gp inhibitor Elacidar): > 5.56 µM | EC50 (Zika virus [2]; Vero C1008): 3.19 µM | EC90 (Zika virus [2]; Vero C1008, Baseline response 0 %, EC90 CI (lower) 0.059 uM, EC90 CI (upper) 333.672 uM, Hill slope 6.678, Maximum measured 170.178 %, Maximum response 100 %, Minimum measured 3.055 %, R squared 0.499): 4.44 µM | EC90 (Zika virus [3]; Baseline response 0 %, Hill slope -0.296, Maximum measured 102.901 %, Maximum response 100 %, Minimum measured 72.878 %, R squared 0.169): > 16.7 µM | EC90 (Zika virus [3]; Baseline response 0 %, Hill slope -0.385, Maximum measured 147.213 %, Maximum response 4776.39 %, Minimum measured 30.718 %, R squared 0.741): < 0.023 µM

O=C(Nc1ccc2c(c1)CNC2)c1cc(Br)cc2[nH]c(Cc3ccccc3)nc12
EC50 (dengue virus type 2 [4]; Vero C1008): 2.23 µM | EC90 (dengue virus type 2 [4]; Vero C1008, Baseline response 0 %, Hill slope -0.825, Maximum measured 88.647 %, Maximum response 100 %, Minimum measured 23.774 %, R squared 0.436): > 6.25 µM | EC50 (dengue virus type 2 [1]; Dengue virus, VeroE6/TMPRSS2): > 16.7 µM | EC90 (dengue virus type 2 [1]; Dengue virus, VeroE6/TMPRSS2, Maximum measured 134.005 %, Minimum measured 55.42 %, P-gp concentration 2 uM, P-gp inhibitor Elacidar): > 16.7 µM | EC50 (Zika virus [3]; Zika virus, VeroE6/TMPRSS2): > 1.85 µM | EC90 (Zika virus [3]; Zika virus, VeroE6/TMPRSS2, Maximum measured 133.577 %, Minimum measured 80.808 %): > 1.85 µM

O=C(Nc1ccc2c(c1)CNC2)c1cc(F)cc2[nH]ncc12
EC50 (dengue virus type 2 [4]; Vero C1008): > 50 µM | EC90 (dengue virus type 2 [4]; Vero C1008, Maximum measured 105.261 %, Minimum measured 100.126 %): > 50 µM | EC50 (dengue virus type 2 [1]; Dengue virus, VeroE6/TMPRSS2): > 50 µM | EC90 (dengue virus type 2 [1]; Dengue virus, VeroE6/TMPRSS2, Maximum measured 176.33 %, Minimum measured 105.177 %, P-gp concentration 2 uM, P-gp inhibitor Elacidar): > 50 µM | EC50 (Zika virus [2]; Vero C1008): 25 µM | EC90 (Zika virus [2]; Vero C1008, Baseline response 0 %, Hill slope 1.231, Maximum measured 66.562 %, Maximum response 100 %, Minimum measured -0.926 %, R squared 0.986): > 50 µM | EC90 (Zika virus [3]; Baseline response 0 %, EC90 CI (lower) 0.259 uM, EC90 CI (upper) 34.627 uM, Hill slope -1.703, Maximum measured 110.866 %, Maximum response 50 %, Minimum measured 3.647 %, R squared 0.44): 39.5 µM | EC90 (Zika virus [3]; Zika virus, VeroE6/TMPRSS2, Baseline response 0 %, Hill slope -2.726, Maximum measured 111.669 %, Maximum response 100 %, Minimum measured 14.076 %, R squared 0.547): > 50 µM | EC50 (Zika virus [3]; veroe6/tmprss2): 25.4 µM and 10.9 µM

O=C(Nc1ccc2c(c1)CNC2)c1cc(Br)cc2[nH]ncc12
EC50 (dengue virus type 2 [4]; Vero C1008): > 50 µM | EC90 (dengue virus type 2 [4]; Vero C1008, Baseline response 0 %, Hill slope -0.471, Maximum measured 107.19 %, Maximum response 100 %, Minimum measured 78.588 %, R squared 0.089): > 50 µM | EC50 (dengue virus type 2 [1]; Dengue virus, VeroE6/TMPRSS2): > 50 µM | EC90 (dengue virus type 2 [1]; Dengue virus, VeroE6/TMPRSS2, Maximum measured 186.968 %, Minimum measured 93.389 %, P-gp concentration 2 uM, P-gp inhibitor Elacidar): > 50 µM | EC50 (Zika virus [2]; Vero C1008): > 50 µM | EC90 (Zika virus [2]; Vero C1008, Baseline response 0 %, Hill slope 1.733, Maximum measured 40.291 %, Maximum response 100 %, Minimum measured -1.647 %, R squared 0.923): > 50 µM | EC90 (Zika virus [3]; Baseline response 0 %, EC90 CI (lower) 1.042 uM, EC90 CI (upper) 22.584 uM, Hill slope -2.906, Maximum measured 100.475 %, Maximum response 60 %, Minimum measured 3.913 %, R squared 0.559): 22 µM | EC90 (Zika virus [3]; Baseline response 0 %, Hill slope -0.436, Maximum measured 89.533 %, Maximum response 80 %, Minimum measured 16.256 %, R squared 0.57): > 50 µM | EC50 (Zika virus [3]; veroe6/tmprss2): 3.73 µM and 10.3 µM

O=C(NCc1ccc(F)cc1)[C@H](Nc1ccc2c(c1)CNC2)c1cc(Cl)cc2[nH]ncc12
EC50 (dengue virus type 2 [4]; Vero C1008): > 50 µM | EC90 (dengue virus type 2 [4]; Vero C1008, Maximum measured 108.299 %, Minimum measured 100.399 %): > 50 µM | EC50 (dengue virus type 2 [1]; Dengue virus, VeroE6/TMPRSS2): > 50 µM | EC90 (dengue virus type 2 [1]; Dengue virus, VeroE6/TMPRSS2, Maximum measured 150.332 %, Minimum measured 95.286 %, P-gp concentration 2 uM, P-gp inhibitor Elacidar): > 50 µM | EC50 (Zika virus [2]; Vero C1008): > 50 µM | EC90 (Zika virus [2]; Vero C1008, Maximum measured 1.197 %, Minimum measured -8.607 %): > 50 µM | EC90 (Zika virus [3]; Baseline response 0 %, EC90 CI (lower) 0.003 uM, EC90 CI (upper) 0.037 uM, Hill slope -0.964, Maximum measured 95.888 %, Maximum response 100 %, Minimum measured 15.187 %, R squared 0.753): 0.949 µM | EC90 (Zika virus [3]; Baseline response 0 %, Hill slope -0.072, Maximum measured 102.654 %, Maximum response 100 %, Minimum measured 56.434 %, R squared 0.024): > 16.7 µM

O=C(Nc1ccc2c(c1)CNC2)c1cc(Cl)cc2ccncc12
EC50 (dengue virus type 2 [4]; Vero C1008): 41.2 µM | EC90 (dengue virus type 2 [4]; Vero C1008, Baseline response 0 %, Hill slope -2.845, Maximum measured 98.374 %, Maximum response 100 %, Minimum measured 34.264 %, R squared 0.76): > 50 µM | EC50 (dengue virus type 2 [1]; Dengue virus, VeroE6/TMPRSS2): > 50 µM | EC90 (dengue virus type 2 [1]; Dengue virus, VeroE6/TMPRSS2, Maximum measured 58.239 %, Minimum measured 35.466 %, P-gp concentration 2 uM, P-gp inhibitor Elacidar): > 50 µM | EC90 (dengue virus type 2 [1]; Dengue virus, VeroE6/TMPRSS2, Baseline response 0 %, Hill slope -1.704, Maximum measured 164.443 %, Maximum response 150 %, Minimum measured 48.079 %, P-gp concentration 2 uM, R squared 0.653, P-gp inhibitor Elacidar): > 50 µM | EC50 (dengue virus type 2 [1]; veroe6/tmprss2): 29.3 µM | EC50 (Zika virus [2]; Vero C1008): 3.67 µM | EC90 (Zika virus [2]; Vero C1008, Baseline response 0 %, EC90 CI (lower) 1.242 uM, EC90 CI (upper) 28.049 uM, Hill slope 4.622, Maximum measured 165.724 %, Maximum response 100 %, Minimum measured 0.965 %, R squared 0.715): 5.9 µM | EC90 (Zika virus [3]; Baseline response 0 %, EC90 CI (lower) 0.484 uM, EC90 CI (upper) 78.893 uM, Hill slope -5.004, Maximum measured 134.979 %, Maximum response 50 %, Minimum measured 2.857 %, R squared 0.323): 14.9 µM | EC50 (Zika virus [3]; Zika virus, VeroE6/TMPRSS2): 16.1 µM | EC90 (Zika virus [3]; Zika virus, VeroE6/TMPRSS2, Baseline response 0 %, Hill slope -17.627, Maximum measured 65.213 %, Maximum response 47.14 %, Minimum measured 8.096 %, R squared 0.51): 18.3 µM | EC50 (Zika virus [3]; veroe6/tmprss2): 9.59 µM

O=C1Cc2c(cc(Br)cc2C(=O)Nc2ccc3c(c2)CNC3)N1
EC50 (dengue virus type 2 [4]; Vero C1008): > 50 µM | EC90 (dengue virus type 2 [4]; Vero C1008, Maximum measured 133.969 %, Minimum measured 97.1 %): > 50 µM | EC50 (dengue virus type 2 [1]; Dengue virus, VeroE6/TMPRSS2): > 50 µM | EC90 (dengue virus type 2 [1]; Dengue virus, VeroE6/TMPRSS2, Maximum measured […], Minimum measured 159.027 %, P-gp concentration 2 uM, P-gp inhibitor Elacidar): > 50 µM | EC50 (Zika virus [2]; Vero C1008): 7.52 µM | EC90 (Zika virus [2]; Vero C1008, Baseline response 0 %, EC90 CI (lower) 4.323 uM, EC90 CI (upper) 45.141 uM, Hill slope 3.545, Maximum measured 169.819 %, Maximum response 100 %, Minimum measured -0.685 %, R squared 0.785): 14 µM | EC90 (Zika virus [3]; Baseline response 0 %, EC90 CI (lower) 0.005 uM, EC90 CI (upper) 0.605 uM, Hill slope -0.732, Maximum measured 85.329 %, Maximum response 60 %, Minimum measured 3.582 %, R squared 0.614): 21.3 µM | EC90 (Zika virus [3]; Baseline response 0 %, Hill slope -0.686, Maximum measured 100.363 %, Maximum response 100 %, Minimum measured 5.777 %, R squared 0.778): > 50 µM | EC50 (Zika virus [3]; Zika virus, VeroE6/TMPRSS2): 2.09 µM | EC50 (Zika virus [3]; veroe6/tmprss2): 1.06 µM
